Where a name gives a salt, the structure may show the parent alone.

T1 sequence (Q9Y5N1 whole entry): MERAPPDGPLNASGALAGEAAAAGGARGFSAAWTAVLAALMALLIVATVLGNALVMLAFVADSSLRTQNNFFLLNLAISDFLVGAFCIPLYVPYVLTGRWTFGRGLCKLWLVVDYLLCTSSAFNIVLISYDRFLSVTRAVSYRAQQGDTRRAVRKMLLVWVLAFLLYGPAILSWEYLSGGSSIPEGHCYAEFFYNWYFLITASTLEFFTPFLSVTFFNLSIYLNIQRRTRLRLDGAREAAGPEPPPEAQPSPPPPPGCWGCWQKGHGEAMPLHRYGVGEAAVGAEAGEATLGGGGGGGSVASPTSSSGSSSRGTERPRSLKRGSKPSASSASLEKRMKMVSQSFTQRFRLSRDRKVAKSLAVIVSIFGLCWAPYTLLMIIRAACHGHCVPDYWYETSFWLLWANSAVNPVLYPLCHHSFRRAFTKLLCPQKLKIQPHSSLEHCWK

This assay addresses T1, Human Histamine H3 Receptor (Homo sapiens, UniProt Q9Y5N1).
T1 construct: expressed in transfected cells; host or cells: HEK293T (stably transfected; membranes prepared from the cells)
The assay is described as follows: Methyl histamine binding in human histamine H3 receptor cell line. The following applies: read-out: H3 Binding Ki. The method, boiled down:
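Radioligand binding on membranes (10 μg/well) from a human H3 receptor cell line, 1 nM radioligand, 1 h at 30° C. in 50 mM Tris pH 7.5. Nonspecific binding defined with 10 uM clobenpropit, followed by filtration and scintillation counting. IC50 from four-parameter fit, converted to Ki by Cheng-Prusoff.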
As for `O=C1c2ccc(-c3cc(F)cc(F)c3)cc2CCN1CCN1CCCC1` [Example 10, 6-(3,5-difluorophenyl)-2-(2-pyrrolidin-1-ylethyl)-3,4-dihydroisoquinolin-1(2H)-one], the Ki is below 10 nM.
To `COc1ccc(-c2ccc3c(c2)CCN(CCN2CCCC2)C3=O)cc1` [Example 23, 6-(4-methoxyphenyl)-2-(2-pyrrolidin-1-ylethyl)-3,4-dihydroisoquinolin-1(2H)-one] belongs below 10 nM.
The result for `C[C@@H]1CCCN1CCN1CCc2cc(-c3ccc(C(=O)N4CCCC4)cc3)ccc2C1=O` [Example 66, 2-{2-[(2R)-2-methylpyrrolidin-1-yl]ethyl}-6-[4-(pyrrolidin-1-ylcarbonyl)phenyl]-3,4-dihydroisoquinolin-1(2H)-one] reads below 10 nM; that for `C[C@@H]1CCCN1CCN1CCc2cc(-c3ccc(C(=O)NCC4CC4)cc3)ccc2C1=O` [Example 73, N-(cyclopropylmethyl)-4-(2-{2-[(2R)-2-methylpyrrolidin-1-yl]ethyl}-1-oxo-1,2,3,4-tetrahydroisoquinolin-6-yl)benzamide], below 10 nM.
Turning to `CNC(=O)c1ccc(-c2ccc3c(c2)CCN(CCCN2CCCC2)C3=O)cc1` [Example 141, N-methyl-4-[1-oxo-2-(3-pyrrolidin-1-ylpropyl)-1,2,3,4-tetrahydroisoquinolin-6-yl]benzamide], the Ki was below 10 nM.
`C[C@@H]1CCCN1C(=O)c1ccc(-c2ccc3c(c2)CCN(CCN2CCCC2)C3=O)cc1` [Example 82, 6-(4-{[(2R)-2-methylpyrrolidin-1-yl]carbonyl}phenyl)-2-(2-pyrrolidin-1-ylethyl)-3,4-dihydroisoquinolin-1(2H)-one]: the Ki is below 10 nM.
The result for `C[C@@H]1CCCN1CCN1CCc2cc(C(=O)N3CCc4ccccc4C3)ccc2C1=O` [Example 150, 6-(3,4-dihydroisoquinolin-2(1H)-ylcarbonyl)-2-{2-[(2R)-2-methylpyrrolidin-1-yl]ethyl}-3,4-dihydroisoquinolin-1(2H)-one] reads below 10 nM.
To `C[C@@H]1CCCN1CCN1CCc2cc(C(=O)NC3CCC3)ccc2C1=O` [Example 145, N-cyclobutyl-2-{2-[(2R)-2-methylpyrrolidin-1-yl]ethyl}-1-oxo-1,2,3,4-tetrahydroisoquinoline-6-carboxamide] belongs below 10 nM; to `CCNC(=O)c1ccc(-c2ccc3c(c2)CCN(CCN2CCCC2)C3=O)cc1` [Example 58, N-ethyl-4-[1-oxo-2-(2-pyrrolidin-1-ylethyl)-1,2,3,4-tetrahydroisoquinolin-6-yl]benzamide], below 10 nM; to `C[C@@H]1CCCN1CCN1CCc2cc(C(=O)NC3CCCC3)ccc2C1=O` [Example 149, N-cyclopentyl-2-{2-[(2R)-2-methylpyrrolidin-1-yl]ethyl}-1-oxo-1,2,3,4-tetrahydroisoquinoline-6-carboxamide], below 10 nM.
On to `O=C(NC1CC1)c1ccc(-c2ccc3c(c2)CCN(CCN2CCCC2)C3=O)cc1` [Example 57, N-cyclopropyl-4-[1-oxo-2-(2-pyrrolidin-1-ylethyl)-1,2,3,4-tetrahydroisoquinolin-6-yl]benzamide], for which the inhibition constant (Ki) was below 10 nM.
The result for `O=C1c2ccc(-c3ccc(F)c(F)c3)cc2CCN1CCN1CCCC1` [Example 17, 6-(3,4-difluorophenyl)-2-(2-pyrrolidin-1-ylethyl)-3,4-dihydroisoquinolin-1(2H)-one] reads below 10 nM.
To `O=C1c2ccc(-c3ccc(F)cc3F)cc2CCN1CCN1CCCC1` [Example 11, 6-(2,4-difluorophenyl)-2-(2-pyrrolidin-1-ylethyl)-3,4-dihydroisoquinolin-1(2H)-one] belongs below 10 nM; to `CCOCCNC(=O)c1ccc(-c2ccc3c(c2)CCN(CCN2CCCC2)C3=O)cc1` [Example 72, N-(2-ethoxyethyl)-4-[1-oxo-2-(2-pyrrolidin-1-ylethyl)-1,2,3,4-tetrahydroisoquinolin-6-yl]benzamide], 10.1 to 25 nM.
To `C[C@@H]1CCCN1CCN1CCc2cc(Oc3ccc(C#N)cn3)ccc2C1=O` [Example 48, 6-[(2-{2-[(2R)-2-methylpyrrolidin-1-yl]ethyl}-1-oxo-1,2,3,4-tetrahydroisoquinolin-6-yl)oxy]nicotinonitrile] belongs below 10 nM.
`N#Cc1ccc(Oc2ccc3c(c2)CCN(CCN2CCCC2)C3=O)cn1` [Example 52, 5-{[1-oxo-2-(2-pyrrolidin-1-ylethyl)-1,2,3,4-tetrahydroisoquinolin-6-yl]oxy}pyridine-2-carbonitrile]: the Ki was below 10 nM.
To `CC(C)NC(=O)c1ccc(-c2ccc3c(c2)C(=O)N(CCN2CCC[C@H]2C)CC3)cc1` [Example 85, N-isopropyl-4-(2-{2-[(2R)-2-methylpyrrolidin-1-yl]ethyl}-1-oxo-1,2,3,4-tetrahydroiso-quinolin-7-yl)benzamide] belongs below 10 nM.
Take `C[C@@H]1CCCN1CCN1CCc2cc(-c3ccc(F)cc3)ccc2C1=O` [Example 40, 6-(4-fluorophenyl)-2-{2-[(2R)-2-methylpyrrolidin-1-yl]ethyl}-3,4-dihydroisoquinolin-1(2H)-one]: the Ki was below 10 nM.
The result for `O=C1c2ccc(-c3ccc4c(c3)OCO4)cc2CCN1CCN1CCCC1` [Example 21, 6-(1,3-benzodioxol-5-yl)-2-(2-pyrrolidin-1-ylethyl)-3,4-dihydroisoquinolin-1(2H)-one] reads 10.1 to 25 nM; that for `C[C@@H]1CCCN1CCN1CCc2cc(Oc3ccc(C#N)nc3)ccc2C1=O` [Example 51, 5-[(2-{2-[(2R)-2-methylpyrrolidin-1-yl]ethyl}-1-oxo-1,2,3,4-tetrahydroisoquinolin-6-yl)oxy]pyridine-2-carbonitrile], below 10 nM; that for `C[C@@H]1CCCN1CCN1CCc2cc(C(=O)Nc3ccncc3)ccc2C1=O` [Example 153, 2-{2-[(2R)-2-methylpyrrolidin-1-yl]ethyl}-1-oxo-N-pyridin-4-yl-1,2,3,4-tetrahydroisoquinoline-6-carboxamide], below 10 nM.
To `C[C@@H]1CCCN1CCN1CCc2cc(N3CCCCC3)ccc2C1=O` [Example 161, 2-{2-[(2R)-2-methylpyrrolidin-1-yl]ethyl}-6-piperidin-1-yl-3,4-dihydroisoquinolin-1(2H)-one] belongs below 10 nM.
To `O=C1c2ccc(-c3ccc(F)cc3)cc2CCN1CCN1CCCCC1` [Example 43, 6-(4-fluorophenyl)-2-(2-piperidin-1-ylethyl)-3,4-dihydroiso-quinolin-1(2H)-one hydrochloride] belongs below 10 nM; to `COCCNC(=O)c1ccc(-c2ccc3c(c2)CCN(CCN2CCCC2)C3=O)cc1` [Example 69, N-(2-methoxyethyl)-4-[1-oxo-2-(2-pyrrolidin-1-ylethyl)-1,2,3,4-tetrahydroisoquinolin-6-yl]benzamide], below 10 nM.
As to `C[C@@H]1CCCN1CCN1CCc2ccc(-c3ccc(C#N)cc3)cc2C1=O` [Example 26, 4-(2-{2-[(2R)-2-methylpyrrolidin-1-yl]ethyl}-1-oxo-1,2,3,4-tetrahydroisoquinolin-7-yl)benzonitrile], the Ki is below 10 nM.
To `O=C(c1ccc(-c2ccc3c(c2)CCN(CCN2CCCC2)C3=O)cc1)N1CCC1` [Example 64, 6-[4-(azetidin-1-ylcarbonyl)phenyl]-2-(2-pyrrolidin-1-ylethyl)-3,4-dihydroisoquinolin-1(2H)-one] belongs below 10 nM; to `O=C(c1ccc(-c2ccc3c(c2)CCN(CCN2CCCC2)C3=O)cc1)N1CCCC1` [Example 54, 6-[4-(pyrrolidin-1-ylcarbonyl)phenyl]-2-(2-pyrrolidin-1-ylethyl)-3,4-dihydroisoquinolin-1(2H)-one hydrochloride], below 10 nM.
The result for `CCN(CC)C(=O)c1ccc(Oc2ccc3c(c2)CCN(CCN2CCCC2)C3=O)cc1` [Example 96, N,N-diethyl-4-{[1-oxo-2-(2-pyrrolidin-1-ylethyl)-1,2,3,4-tetrahydroisoquinolin-6-yl]oxy}benzamide] reads 25.1 to 50 nM; that for `O=C(c1ccc(-c2ccc3c(c2)CCN(CCN2CCCC2)C3=O)cc1)N1CCCCC1` [Example 79, 6-[4-(piperidin-1-ylcarbonyl)phenyl]-2-(2-pyrrolidin-1-ylethyl)-3,4-dihydroisoquinolin-1(2H)-one], below 10 nM; that for `O=C1c2ccc(-c3ccncc3)cc2CCN1CCN1CCCC1` [Example 34, 6-pyridin-4-yl-2-(2-pyrrolidin-1-ylethyl)-3,4-dihydroisoquinolin-1(2)-one Hydrochloride], below 10 nM.
To `O=C1c2ccc(-c3ccc(F)cc3)cc2CCN1CCN1CCCC1` [Example 9, 6-(4-fluorophenyl)-2-(2-pyrrolidin-1-ylethyl)-3,4-dihydroiso-quinolin-1(2H)-one Hydrochloride] belongs 10.1 to 25 nM; to `O=C(c1ccc2c(c1)CCN(CCN1CCCC1)C2=O)N1CCCC1` [Example 38, 6-(pyrrolidin-1-ylcarbonyl)-2-(2-pyrrolidin-1-ylethyl)-3,4-dihydroisoquinolin-1(2H)-one hydrochloride], 10.1 to 25 nM; to `C[C@@H]1CCCN1CCN1CCc2c(cccc2-c2ccc(C#N)cc2)C1=O` [Example 28, 4-(2-{2-[(2R)-2-methylpyrrolidin-1-yl]ethyl}-1-oxo-1,2,3,4-tetrahydroisoquinolin-5-yl)benzonitrile], 10.1 to 25 nM.
For `O=C1c2ccc(-n3cccn3)cc2CCN1CCN1CCCC1` [Example 37, 6-(1H-pyrazol-1-yl)-2-(2-(pyrrolidin-1-yl)ethyl)-3,4-dihydroisoquinolin-1(2H)-one hydrochloride], the Ki lay in the range of 10.1 to 25 nM.
Consider `CCN(CC)C(=O)c1ccc(-c2ccc3c(c2)CCN(CCN2CCCC2)C3=O)cc1` [Example 62, N,N-diethyl-4-[1-oxo-2-(2-pyrrolidin-1-ylethyl)-1,2,3,4-tetrahydroisoquinolin-6-yl]benzamide], for which the Ki is below 10 nM.
The result for `CNC(=O)c1ccc(-c2ccc3c(c2)C(=O)N(CCN2CCC[C@H]2C)CC3)cc1` [Example 83, N-methyl-4-(2-{2-[(2R)-2-methylpyrrolidin-1-yl]ethyl}-1-oxo-1,2,3,4-tetrahydroiso-quinolin-7-yl)benzamide] reads below 10 nM.

In general, Ki refers to a measure of affinity in units of concentration, obtained from inhibition or displacement.

The record behind these values is patent publication US20090069300A1, “ISOQUINOLINYL AND ISOINDOLINYL DERIVATIVES AS HISTAMINE-3 ANTAGONISTS” (Wyeth, priority 2007, published 2009).
